Assay results taken from patent US6166066A, “Cannabinoids selective for the CB2 receptor” (The University of Connecticut, priority 1999, dated 2000).

Assays:
[1] = target: T1, CB1 receptor (Rattus norvegicus, UniProt P20272); experiment: Radioligand binding assay ([H^3]CP-55,940), rat forebrain membranes as source of CB1; conditions: 0.8 nM [H^3]CP-55,940, 30° C., 1 hour, Ki from IC50 (Cheng and Prusoff)
T1 construct: rat forebrain membranes as a source of CB1; from tissue; host or cells: rat brain membranes (called forebrain; prepared from whole brains minus the cerebral cortex)
T1 sequence (P20272 whole entry): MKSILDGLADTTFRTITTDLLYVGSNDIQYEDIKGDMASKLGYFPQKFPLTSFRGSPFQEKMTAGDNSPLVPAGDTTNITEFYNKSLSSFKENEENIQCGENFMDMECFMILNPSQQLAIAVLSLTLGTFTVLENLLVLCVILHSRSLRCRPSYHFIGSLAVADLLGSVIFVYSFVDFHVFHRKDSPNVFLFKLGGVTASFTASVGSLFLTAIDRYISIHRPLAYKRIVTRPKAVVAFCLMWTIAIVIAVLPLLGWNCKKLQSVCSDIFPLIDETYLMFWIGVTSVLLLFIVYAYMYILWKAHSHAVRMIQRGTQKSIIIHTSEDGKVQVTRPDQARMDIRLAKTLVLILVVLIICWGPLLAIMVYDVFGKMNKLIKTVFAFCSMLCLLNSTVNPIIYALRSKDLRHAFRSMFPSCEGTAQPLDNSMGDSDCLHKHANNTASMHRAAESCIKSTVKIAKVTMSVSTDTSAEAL
Protocol: The binding affinities of the novel compounds described in this invention for the central cannabinoid receptor were assessed using rat forebrain membranes as a source of CB1. Membranes were prepared as described by the method of Dodd et al., Brain Res. 226:107 (1981), the entire teachings of which are incorporated herein by reference. Rat whole brains minus the cerebral cortex were diced with a razor blade and homogenized in 0.32 M sucrose, pH 7.4. The resulting suspension was spun at 400×g at 4° C. The supernatant was decanted and layered over 1.2 M sucrose in TME buffer (25 mM Tris base, 5 mM MgCl2 1 mMEDTA, pH 7.4) and spun at 109,000×g. The interface containing plasma membrane protein was collected, pooled and layered over 0.8 M sucrose in TME, pH 7.4. The pellet was carefully resuspended in TME, pH 7.4 and the total protein content was assayed by the method of Markwell et al., Anal. Biochem. 87:206 (1978), the entire teachings of which are incorporated herein by reference. Protein was aliquotted, frozen under liquid nitrogen and stored at -80° C. until use.
(§1) Approximately 30 μg of tissue was incubated in silanized 96 well microtiter plate with TME containing 0.1% essentially fatty acid free bovine serum albumin (BSA), 0.8 nM [H^3 ]CP-55,940 and various concentrations of the test compound in a final volume of 200 μL. Assays were incubated at 30° C. for 1 hour. The samples were filtered using Packard Filtermate 196 and Whatman GF/C Filterplates and washed with wash buffer (TME) containing 0.5% BSA. Radioactivity was detected using MicroScint 20 scintillation cocktail added directly to the dried filterplates, and the filterplates were counted using a Packard Instruments Top-Count. Nonspecific binding was assessed using 100 nM CP-55,940. Data collected from three independent experiments performed with duplicate determinations were normalized between 100% and 0% specific binding for [H^3 ]CP-55,940, determined using buffer and 100 nM CP-55,940. The normalized data was analyzed using a 4 parameter nonlinear logistic equation to yield IC50 values. Data from at least two independent experiments performed in duplicate were used to calculate IC50 values which were convered to Ki values using the assumptions of Cheng and Prusoff, Biochem. Pharmacol. 22:3099 (1973), the entire teachings of which are incorporated by reference.

[2] = target: T2, CB2 receptor (Mus musculus, UniProt P47936); experiment: Radioligand binding assay ([H^3]CP-55,940), mouse spleen as source of CB2; conditions: for Ki: mouse spleen, conducted in the same manner as for CB1, Ki from IC50 (Cheng and Prusoff)
T2 construct: Mouse spleen was used as a source of CB2 receptors; from tissue; host or cells: mouse spleen
T2 sequence (P47936 whole entry): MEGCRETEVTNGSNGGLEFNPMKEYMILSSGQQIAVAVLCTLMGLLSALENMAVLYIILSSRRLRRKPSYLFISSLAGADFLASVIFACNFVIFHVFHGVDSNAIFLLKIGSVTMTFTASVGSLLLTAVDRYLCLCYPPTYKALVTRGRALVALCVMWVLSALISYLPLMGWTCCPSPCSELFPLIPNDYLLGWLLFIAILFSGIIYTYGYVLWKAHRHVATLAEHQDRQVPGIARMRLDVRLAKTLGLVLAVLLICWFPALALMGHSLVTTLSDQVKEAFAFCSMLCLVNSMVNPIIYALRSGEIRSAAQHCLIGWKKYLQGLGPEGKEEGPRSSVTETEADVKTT
Protocol: as §1
Mouse spleen was used as a source of CB2 receptors to assess binding affinity of analogs described in this invention. The CB2 binding assay was conducted in the same manner as for CB1. Silanized centrifuge tubes were used throughout to minimize receptor loss due to adsorption.

[3] = tested on: CB1 receptor; conditions: in the brain; background; cited from earlier work
[4] = tested on: CB2 receptor; conditions: in the spleen; background; cited from earlier work

Structure (SMILES) | Ki [1] | Ki [2] | affinity for the CB2 receptor relative to the CB1 receptor ([2]; CB2 (mouse spleen) versus CB1 (rat forebrain)) | binding to the CB1 receptor [3] | binding to the CB2 receptor [4]
CC1=CCC2C(C1)c1c(cc3c(c1O)C1CC(CCC1C)C3(C)C)OC2(C)C (stereo not shown) [AM725] | 360 µM | 0.281 µM |  |  | 
CC1=CCC2C(C1)c1c(cc3c(c1O)C1CC(CCC1C)C3(C)C)OC2(C)C (stereo not shown) [AM724] | 6.88 µM | 0.0169 µM | about 400 times |  | 
CCCCCCC1CCCc2c1cc(O)c1c2OC(C)(C)C2CC=C(C)CC12 (stereo not shown) [AM858] | 0.524 µM | 0.456 µM |  |  | 
CCCCCCC1CCc2cc(O)c3c(c2C1)OC(C)(C)C1CC=C(C)CC31 (stereo not shown) [AM855] | 0.0223 µM | 0.0586 µM |  |  | 
CCCCCc1cc(O)c2c(c1)OC(C)(C)C1CC=C(C)CC21 (single isomer, unassigned) [Δ^8 -Tetrahydrocannabinol] |  |  |  | binds | binds
CCCCCC1CCc2c(cc3c(c2O)C2CC(C)=CCC2C(C)(C)O3)C1 (stereo not shown) [AM856] | 0.402 µM | 0.162 µM |  |  | 
